Source: patent US9464042B2, “Biguanide derivative, preparation method thereof, and pharmaceutical composition containing same as an active ingredient” (IMMUNOMET THERAPEUTICS INC., priority 2010, dated 2016)
Where a name gives a salt, the structure may show the parent alone.

Legend:
[1] = system: HCT116 cells; assay: Inhibition of cancer cell proliferation (MTT, GIC50); format: cell-based; settings: Homo sapiens, HCT-116, 48 h incubation
Method: HCT116 cells derived from human colorectal cancer were used, and a cancer cell proliferation inhibition effect of a biguanide derivative was confirmed by measuring a concentration value (cell growth inhibition concentration, GIC50) at which cell growth was inhibited 50% using a 3-(4,5-dimethylthiazol-2-yl)-2,5-diphenyltetrazolium bromide (MTT) reagent.
First, the HCT116 cells were put on a 96-well plate and incubated for 24 hours to each have cell count of approximately 5000 in a DMEM medium containing 10% fetal bovine serum. Subsequently, to obtain the GIC50 value of each compound, 100 μM (or 200 μM), 25 μM, 6.25 μM, 1.56 μM or 0.39 μM of the compound was treated to each culture medium and then incubated for 48 hours. To confirm living cells after treatment with the compound, MTT was added to each culture medium and further incubated for 3 hours. Generated formazane crystal was dissolved using dimethyl sulfoxide (DMSO), and absorbance of the solution was measured at 560 nm. After the 48-hour incubation, a ratio of […] synthesized in the examples was indicated as cell viability (%) according to each administered concentration. A cell viability curve was plotted using the cell viability (%) and the calculated concentration value (GIC50) of the compound, at which 50% of the growth was inhibited, to confirm an effect on the inhibition of cancer cell proliferation.

[2] = system: AMPK; assay: AMPK activation (AMPKα immunoassay kit, phospho-Thr172) in MCF7 cells; format: cell-based, human; set-up: AMPK Activation 50 uM (degree of phosphorylated AMPKα Thr172): unit not given here; settings: 24 h; for AMPK Activation 50 uM (degree of phosphorylated AMPKα Thr172): 50 uM compound
Method: The MCF7 cells were put on a 6-well plate and incubated in a DMEM medium containing 10% fetal bovine serum in an incubator to which 5% CO2 was supplied to have a cell count of approximately 5×10^5. 50 μM of the derivatives synthesized in the examples were treated to the each culture medium, and the cells were incubated for 24 hours. Subsequently, the cells were lysed by a method presented in the operation manual of the AMPKα immunoassay kit, and 20 μg of cell lysates were yielded through protein assay.

[3] = 50 uM compound vs 0 (no compound)

Compound: CCCCN/C(=N\Cc1ccc(OC)cc1)NC(=N)N.Cl [Example 22, N4-(4-methoxyl)benzyl-N5-butyl biguanide hydrochloride]
- IC50 [1]: > 100 µM
- AMPK Activation Fold [2, 3]: 4.4
- AMPK Activation 50 uM (degree of phosphorylated AMPKα Thr172) [2]: 29.9

Compound: CN(C)C(=N)N=C(N)N [Metformin HCl, reference compound]
- AMPK Activation Fold ([2]; 1 mM metformin vs 0 (no compound)): 3.2
- AMPK Activation (@ 1 mM) (degree of phosphorylated AMPKα Thr172) ([2]; 1 mM metformin): 21.5

Compound: CCCC/N=C(\NCCc1ccccc1)NC(=N)N.Cl [Example 33, N4-butyl-N5-(phenethyl)biguanide hydrochloride]
- IC50 [1]: 6.5 µM
- melting point: 178 to 179 °C

Compound: CCCCN/C(=N\Cc1ccc(Cl)cc1)NC(=N)N.Cl [Example 21, N4-(4-chloro)benzyl-N5-butyl biguanide hydrochloride]
- IC50 [1]: 13.5 µM
- melting point: 113 to 115 °C

Compound: Cl.N=C(N)N/C(=N/Cc1ccccc1)NCCc1ccccc1 [Example 40, N4-benzyl-N5-(phenethyl)biguanide hydrochloride]
- IC50 [1]: 85.6 µM
- AMPK Activation Fold [2, 3]: 3.9
- AMPK Activation 50 uM (degree of phosphorylated AMPKα Thr172) [2]: 20.5
- melting point: 165 to 166 °C

Compound: CCCC/N=C(\NCCCC)NC(=N)N.Cl [Example 9, N4,N5-dibutyl biguanide hydrochloride]
- IC50 [1]: > 100 µM
- AMPK Activation Fold [2, 3]: 3.8
- AMPK Activation 50 uM (degree of phosphorylated AMPKα Thr172) [2]: 25.6
- melting point: 112 to 114 °C

Compound: Cl.N=C(N)N/C(=N/CCc1ccccc1)NCCc1ccccc1 [Example 43, N4-N5-di(phenethyl)biguanide hydrochloride]
- IC50 [1]: 70.2 µM
- AMPK Activation Fold [2, 3]: 4.5
- AMPK Activation 50 uM (degree of phosphorylated AMPKα Thr172) [2]: 23.8
- melting point: 183 to 184 °C

Compound: CCCCCC/N=C(\NCCCC)NC(=N)N.Cl [Example 10, N4-hexyl-N5-butyl biguanide hydrochloride]
- IC50 [1]: 30.3 µM
- AMPK Activation Fold [2, 3]: 7.2
- AMPK Activation 50 uM (degree of phosphorylated AMPKα Thr172) [2]: 38.1

Compound: CCCCN/C(=N\CCc1ccc(Cl)cc1)NC(=N)N.Cl [Example 25]
- AMPK Activation Fold [2, 3]: 6.7
- AMPK Activation 50 uM (degree of phosphorylated AMPKα Thr172) [2]: 16.7
- melting point: 123 to 124 °C

Compound: CCCCCC/N=C(/NC(=N)N)NC(C)CC.Cl (stereo not shown) [Example 7, N4-hexyl-N5-(butane-2-yl)biguanide hydrochloride]
- IC50 [1]: > 100 µM
- AMPK Activation Fold [2, 3]: 5.8
- AMPK Activation 50 uM (degree of phosphorylated AMPKα Thr172) [2]: 39.5
- melting point: 175 to 176 °C

Compound: C=CC/N=C(\NC)NC(=N)N.Cl [Example 4, N4-allyl-N5-methyl biguanide hydrochloride]
- IC50 [1]: > 100 µM
- AMPK Activation Fold [2, 3]: 0.8
- AMPK Activation 50 uM (degree of phosphorylated AMPKα Thr172) [2]: 5.3
- melting point: 156 to 157 °C

Compound: CN(CCc1ccccc1)/C(=N\CCc1ccccc1)NC(=N)N.Cl [Example 47, N4-(phenethyl)-N5,N5-(phenethyl)(methyl)biguanide hydrochloride]
- IC50 [1]: > 100 µM
- AMPK Activation Fold [2, 3]: 1.1
- AMPK Activation 50 uM (degree of phosphorylated AMPKα Thr172) [2]: 7.2
- melting point: 144 to 145 °C

Compound: Cl.N=C(N)N/C(=N/CCc1ccccc1)NC1CCCCC1 [Example 27, N4-(phenethyl)-N5-cyclohexyl biguanide hydrochloride]
- IC50 [1]: > 100 µM
- AMPK Activation Fold [2, 3]: 2.7
- AMPK Activation 50 uM (degree of phosphorylated AMPKα Thr172) [2]: 18.7
- melting point: 183 to 184 °C

Compound: COc1ccc(C/N=C(/NC(=N)N)N(C)Cc2cccc3ccccc23)cc1.Cl [Example 46, N4-(4-methoxyl)benzyl-N5,N5-(1-naphthylmethyl)-(methyl) biguanide hydrochloride]
- IC50 [1]: 99.1 µM
- AMPK Activation Fold [2, 3]: 3.7
- AMPK Activation 50 uM (degree of phosphorylated AMPKα Thr172) [2]: 19.5

Compound: CCCCN(Cc1ccccc1)/C(=N\CCc1ccccc1)NC(=N)N.Cl [Example 50, N4-(phenethyl)-N5,N5-(butyl)(benzyl)biguanide hydrochloride]
- IC50 [1]: 59.1 µM
- AMPK Activation Fold [2, 3]: 4.0
- AMPK Activation 50 uM (degree of phosphorylated AMPKα Thr172) [2]: 21.4
- melting point: 184 to 185 °C

Compound: CCCCN/C(=N\C(C)CC)NC(=N)N.Cl (stereo not shown) [Example 12, N4-(butane-2-yl)-N5-butyl biguanide hydrochloride]
- IC50 [1]: > 200 µM
- AMPK Activation Fold [2, 3]: 1.5
- AMPK Activation 50 uM (degree of phosphorylated AMPKα Thr172) [2]: 8.1
- melting point: 193 to 194 °C

Compound: Cl.N=C(N)N/C(=N/Cc1ccco1)NCCc1ccccc1 [Example 38, N4-(furan-2-yl)methyl-N5-(phenethyl)biguanide hydrochloride]
- IC50 [1]: > 100 µM
- AMPK Activation Fold [2, 3]: 3.2
- AMPK Activation 50 uM (degree of phosphorylated AMPKα Thr172) [2]: 22.0

Compound: CCCC/N=C(/NC(=N)N)NC1CCCCCC1.Cl [Example 1, N4-butyl-N5-cycloheptyl biguanide hydrochloride]
- IC50 [1]: > 200 µM
- AMPK Activation Fold [2, 3]: 4.0
- AMPK Activation 50 uM (degree of phosphorylated AMPKα Thr172) [2]: 21.1

Compound: CCCCN/C(=N\Cc1cccc(Cl)c1)NC(=N)N.Cl [Example 20, N4-(3-chloro)benzyl-N5-butyl biguanide hydrochloride]
- IC50 [1]: 54.1 µM
- AMPK Activation Fold [2, 3]: 1.5
- AMPK Activation 50 uM (degree of phosphorylated AMPKα Thr172) [2]: 7.2

Compound: CCCCN/C(=N\Cc1ccccc1)NC(=N)N.Cl [Example 18, N4-benzyl-N5-butyl biguanide hydrochloride]
- IC50 [1]: > 200 µM
- AMPK Activation Fold [2, 3]: 1.8
- AMPK Activation 50 uM (degree of phosphorylated AMPKα Thr172) [2]: 9.6

Compound: Cl.N=C(N)N/C(=N/c1ccccc1)NCCc1ccccc1 [Example 35, N4-phenyl-N5-(phenethyl)biguanide hydrochloride]
- AMPK Activation Fold [2, 3]: 1.3
- AMPK Activation 50 uM (degree of phosphorylated AMPKα Thr172) [2]: 9.0
- melting point: 232 to 233 °C

Compound: Cl.N=C(N)N/C(=N/C12CC3CC(CC(C3)C1)C2)NCCc1ccccc1 [Example 34, N4-adamantyl-N5-(phenethyl)biguanide hydrochloride]
- IC50 [1]: 18.7 µM
- AMPK Activation Fold [2, 3]: 8.3
- AMPK Activation 50 uM (degree of phosphorylated AMPKα Thr172) [2]: 20.8
- melting point: 251 to 252 °C

Compound: CCC(C)N/C(=N\CCc1ccccc1)NC(=N)N.Cl (stereo not shown) [Example 8, N4-(phenetyl)-N5-(butyl-2-yl)biguanide hydrochloride]
- IC50 [1]: > 100 µM
- AMPK Activation Fold [2, 3]: 2.7
- AMPK Activation 50 uM (degree of phosphorylated AMPKα Thr172) [2]: 18.4
- melting point: 181 to 183 °C

Compound: CCCCN/C(=N\CCc1ccc(Cl)cc1)NC(=N)N.Cl [Example 25, N4-(4-chloro)phenethyl)-N5-butyl biguanide hydrochloride]
- IC50 [1]: 26.5 µM

Compound: CCCCN/C(=N\Cc1ccc(Cl)c(Cl)c1)NC(=N)N.Cl [Example 23, N4-(3,4-dichloro)benzyl-N5-butyl biguanide hydrochloride]
- IC50 [1]: 35.3 µM
- AMPK Activation Fold [2, 3]: 7.8
- AMPK Activation 50 uM (degree of phosphorylated AMPKα Thr172) [2]: 19.5

Compound: CCCCN/C(=N\CCc1cccs1)NC(=N)N.Cl [Example 24, N4-(thiophene-2-yl)ethyl-N5-butyl biguanide hydrochloride]
- IC50 [1]: > 100 µM
- AMPK Activation Fold [2, 3]: 4.4
- AMPK Activation 50 uM (degree of phosphorylated AMPKα Thr172) [2]: 29.9
- melting point: 131 to 133 °C

Compound: Cl.N=C(N)N/C(=N/Cc1cccnc1)Nc1ccccc1 [Example 28, N4-(pyridine-3-yl)methyl-N5-phenyl biguanide hydrochloride]
- IC50 [1]: > 100 µM
- AMPK Activation Fold [2, 3]: 1.0
- AMPK Activation 50 uM (degree of phosphorylated AMPKα Thr172) [2]: 6.7
- melting point: 189 to 190 °C

Compound: C=CC/N=C(\NCCCC)NC(=N)N.Cl [Example 13, N4-allyl-N5-butyl biguanide hydrochloride]
- IC50 [1]: > 200 µM
- AMPK Activation Fold [2, 3]: 3.9
- AMPK Activation 50 uM (degree of phosphorylated AMPKα Thr172) [2]: 20.5

Compound: Cl.N=C(N)N/C(=N/C1CCCCCC1)NCc1ccccc1 [Example 31, N4-cycloheptyl-N5-benzyl biguanide hydrochloride]
- IC50 [1]: > 100 µM
- AMPK Activation Fold [2, 3]: 6.6
- AMPK Activation 50 uM (degree of phosphorylated AMPKα Thr172) [2]: 44.6

Compound: C=CC/N=C(\NCc1ccccc1)NC(=N)N.Cl [Example 29, N4-allyl-N5-benzyl biguanide hydrochloride]
- IC50 [1]: > 200 µM
- AMPK Activation Fold [2, 3]: 1.0
- AMPK Activation 50 uM (degree of phosphorylated AMPKα Thr172) [2]: 5.5

Compound: CCCCN/C(=N\Cc1ccco1)NC(=N)N.Cl [Example 15, N4-(furane-2-yl)methyl-N5-butyl biguanide hydrochloride]
- IC50 [1]: > 200 µM
- AMPK Activation Fold [2, 3]: 3.7
- AMPK Activation 50 uM (degree of phosphorylated AMPKα Thr172) [2]: 19.4

Compound: CCCCCC/N=C(\NC)NC(=N)N.Cl [Example 3, N4-hexyl-N5-methyl biguanide hydrochloride]
- IC50 [1]: > 100 µM
- AMPK Activation Fold [2, 3]: 5.2
- AMPK Activation 50 uM (degree of phosphorylated AMPKα Thr172) [2]: 35.5

Compound: Cl.N=C(N)N/C(=N/c1ccc(Cl)cc1)NCCc1ccccc1 [Example 36, N4-(4-chloro)phenyl-N5-(phenethyl)biguanide hydrochloride]
- IC50 [1]: 9.3 µM
- melting point: 115 to 116 °C
